According to ChEMBL document CHEMBL3627674, “Discovery of wrightiadione as a novel template for the TrkA kinase inhibitors” (Bioorg Med Chem Lett, 2015):

Tests used:
[1] = target: High affinity nerve growth factor receptor (Homo sapiens, UniProt P04629); experiment: Inhibition of TrkA (unknown origin) by radiometric analysis in presence of [gamma-33P]-ATP
[2] = system: Tyrosine-protein kinase ABL1 (Homo sapiens), P00519 [T315I]; experiment: Inhibition of ABL1 T315I mutant phosphorylation (unknown origin) assessed as remaining activity at 10 uM by high-throughput assay relative to control
[3] = target: Tyrosine-protein kinase ABL1 (Homo sapiens) (UniProt P00519); experiment: Inhibition of ABL1 phosphorylation (unknown origin) assessed as remaining activity at 10 uM by high-throughput assay relative to control
[4] = target: Atypical kinase COQ8A, mitochondrial (Homo sapiens) (UniProt Q8NI60); experiment: Inhibition of ADCK3 (unknown origin) assessed as remaining activity at 10 uM by high-throughput assay relative to control
[5] = target: Aurora kinase B (Homo sapiens) (UniProt Q96GD4); experiment: Inhibition of AURKB (unknown origin) assessed as remaining activity at 10 uM by high-throughput assay relative to control
[6] = target: Bone morphogenetic protein receptor type-2 (Homo sapiens) (UniProt Q13873); experiment: Inhibition of BMPR2 (unknown origin) assessed as remaining activity at 10 uM by high-throughput assay relative to control
Bone morphogenetic protein receptor type-2 (Homo sapiens), sequence (Q13873 whole entry): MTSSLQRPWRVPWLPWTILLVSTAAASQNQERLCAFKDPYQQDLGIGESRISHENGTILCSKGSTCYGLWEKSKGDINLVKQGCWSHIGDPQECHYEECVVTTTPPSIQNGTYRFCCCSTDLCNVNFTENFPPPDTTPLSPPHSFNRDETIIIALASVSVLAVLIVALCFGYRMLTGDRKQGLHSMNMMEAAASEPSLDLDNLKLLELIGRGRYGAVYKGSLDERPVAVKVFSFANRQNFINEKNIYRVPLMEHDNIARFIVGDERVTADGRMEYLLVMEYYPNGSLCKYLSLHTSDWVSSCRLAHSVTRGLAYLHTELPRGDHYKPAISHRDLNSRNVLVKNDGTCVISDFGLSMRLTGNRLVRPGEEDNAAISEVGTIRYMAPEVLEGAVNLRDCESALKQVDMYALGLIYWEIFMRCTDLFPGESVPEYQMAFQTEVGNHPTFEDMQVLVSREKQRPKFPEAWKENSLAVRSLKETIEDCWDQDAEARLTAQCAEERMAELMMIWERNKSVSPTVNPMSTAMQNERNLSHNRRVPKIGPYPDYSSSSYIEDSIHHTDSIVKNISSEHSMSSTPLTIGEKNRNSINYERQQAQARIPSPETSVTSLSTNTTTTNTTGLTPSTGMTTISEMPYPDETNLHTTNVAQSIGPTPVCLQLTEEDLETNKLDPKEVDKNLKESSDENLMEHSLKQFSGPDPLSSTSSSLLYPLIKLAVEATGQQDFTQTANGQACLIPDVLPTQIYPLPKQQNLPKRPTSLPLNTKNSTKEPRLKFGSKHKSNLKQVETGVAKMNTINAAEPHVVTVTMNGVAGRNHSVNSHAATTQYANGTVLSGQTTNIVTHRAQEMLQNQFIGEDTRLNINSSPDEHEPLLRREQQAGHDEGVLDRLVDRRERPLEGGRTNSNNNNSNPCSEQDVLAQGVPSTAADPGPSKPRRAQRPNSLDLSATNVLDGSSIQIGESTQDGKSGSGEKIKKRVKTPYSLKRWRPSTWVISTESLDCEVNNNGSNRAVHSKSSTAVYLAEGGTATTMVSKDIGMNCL

[7] = target: Serine/threonine-protein kinase B-raf (Homo sapiens) (UniProt P15056); experiment: Inhibition of BRAF (unknown origin) assessed as remaining activity at 10 uM by high-throughput assay relative to control
[8] = target: Cyclin-dependent kinase 9 (Homo sapiens) (UniProt P50750); experiment: Inhibition of CDK9 (unknown origin) assessed as remaining activity at 10 uM by high-throughput assay relative to control
Cyclin-dependent kinase 9 (Homo sapiens), sequence (P50750 whole entry): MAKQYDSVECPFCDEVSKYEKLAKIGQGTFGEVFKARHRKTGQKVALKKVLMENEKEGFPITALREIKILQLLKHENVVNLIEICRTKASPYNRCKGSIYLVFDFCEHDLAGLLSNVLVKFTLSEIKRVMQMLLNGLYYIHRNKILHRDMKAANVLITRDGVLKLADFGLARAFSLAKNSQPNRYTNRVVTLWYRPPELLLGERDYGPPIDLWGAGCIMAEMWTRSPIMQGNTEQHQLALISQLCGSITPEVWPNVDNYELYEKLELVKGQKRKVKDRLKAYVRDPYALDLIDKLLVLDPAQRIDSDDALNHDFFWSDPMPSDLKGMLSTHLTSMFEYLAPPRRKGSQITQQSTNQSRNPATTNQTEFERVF

[9] = target: Macrophage colony-stimulating factor 1 receptor (Homo sapiens) (UniProt P07333); experiment: Inhibition of CSF1R (unknown origin) assessed as remaining activity at 10 uM by high-throughput assay relative to control
[10] = target: Casein kinase I isoform delta (Homo sapiens) (UniProt P48730); experiment: Inhibition of CSNK1D (unknown origin) assessed as remaining activity at 10 uM by high-throughput assay relative to control
[11] = target: Serine/threonine-protein kinase DCLK1 (Homo sapiens) (UniProt O15075); experiment: Inhibition of DCAMKL1 (unknown origin) assessed as remaining activity at 10 uM by high-throughput assay relative to control
Serine/threonine-protein kinase DCLK1 (Homo sapiens), sequence (O15075 whole entry): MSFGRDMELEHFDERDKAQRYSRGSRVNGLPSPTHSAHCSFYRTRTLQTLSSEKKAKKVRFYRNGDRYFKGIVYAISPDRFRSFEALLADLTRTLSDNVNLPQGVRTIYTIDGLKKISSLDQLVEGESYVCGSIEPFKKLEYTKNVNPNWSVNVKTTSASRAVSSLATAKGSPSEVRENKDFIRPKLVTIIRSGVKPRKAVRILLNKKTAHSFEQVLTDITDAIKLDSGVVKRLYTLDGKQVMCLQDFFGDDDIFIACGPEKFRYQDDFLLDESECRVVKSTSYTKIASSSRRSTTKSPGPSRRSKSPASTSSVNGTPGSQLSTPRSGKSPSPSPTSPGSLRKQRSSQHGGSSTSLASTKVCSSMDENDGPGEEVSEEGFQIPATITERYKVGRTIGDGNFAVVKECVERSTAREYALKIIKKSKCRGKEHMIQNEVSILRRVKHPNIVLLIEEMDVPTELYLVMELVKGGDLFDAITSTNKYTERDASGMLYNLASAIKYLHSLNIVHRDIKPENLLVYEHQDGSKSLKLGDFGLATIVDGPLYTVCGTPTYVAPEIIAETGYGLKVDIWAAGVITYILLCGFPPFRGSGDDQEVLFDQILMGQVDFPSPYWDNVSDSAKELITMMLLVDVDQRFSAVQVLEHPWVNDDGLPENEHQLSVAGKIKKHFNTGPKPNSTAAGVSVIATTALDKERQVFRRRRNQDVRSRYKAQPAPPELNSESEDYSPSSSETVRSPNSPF

[12] = target: Receptor tyrosine-protein kinase erbB-4 (Homo sapiens) (UniProt Q15303); experiment: Inhibition of ERBB4 (unknown origin) assessed as remaining activity at 10 uM by high-throughput assay relative to control
[13] = target: Mitogen-activated protein kinase 3 (Homo sapiens) (UniProt P27361); experiment: Inhibition of ERK1 (unknown origin) assessed as remaining activity at 10 uM by high-throughput assay relative to control
Mitogen-activated protein kinase 3 (Homo sapiens), sequence (P27361 whole entry): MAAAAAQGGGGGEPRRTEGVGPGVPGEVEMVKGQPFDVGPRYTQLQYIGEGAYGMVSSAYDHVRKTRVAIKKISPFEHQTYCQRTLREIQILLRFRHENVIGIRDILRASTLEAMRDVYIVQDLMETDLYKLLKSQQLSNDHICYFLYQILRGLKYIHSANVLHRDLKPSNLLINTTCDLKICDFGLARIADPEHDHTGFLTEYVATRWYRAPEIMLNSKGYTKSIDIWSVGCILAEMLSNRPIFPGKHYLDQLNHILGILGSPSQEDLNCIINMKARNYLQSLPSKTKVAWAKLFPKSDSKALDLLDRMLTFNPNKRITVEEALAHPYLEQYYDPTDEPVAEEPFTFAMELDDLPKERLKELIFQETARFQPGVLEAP

[14] = target: Focal adhesion kinase 1 (Homo sapiens) (UniProt Q05397); experiment: Inhibition of FAK (unknown origin) assessed as remaining activity at 10 uM by high-throughput assay relative to control
Focal adhesion kinase 1 (Homo sapiens), sequence (Q05397 2-1052 limits assumed): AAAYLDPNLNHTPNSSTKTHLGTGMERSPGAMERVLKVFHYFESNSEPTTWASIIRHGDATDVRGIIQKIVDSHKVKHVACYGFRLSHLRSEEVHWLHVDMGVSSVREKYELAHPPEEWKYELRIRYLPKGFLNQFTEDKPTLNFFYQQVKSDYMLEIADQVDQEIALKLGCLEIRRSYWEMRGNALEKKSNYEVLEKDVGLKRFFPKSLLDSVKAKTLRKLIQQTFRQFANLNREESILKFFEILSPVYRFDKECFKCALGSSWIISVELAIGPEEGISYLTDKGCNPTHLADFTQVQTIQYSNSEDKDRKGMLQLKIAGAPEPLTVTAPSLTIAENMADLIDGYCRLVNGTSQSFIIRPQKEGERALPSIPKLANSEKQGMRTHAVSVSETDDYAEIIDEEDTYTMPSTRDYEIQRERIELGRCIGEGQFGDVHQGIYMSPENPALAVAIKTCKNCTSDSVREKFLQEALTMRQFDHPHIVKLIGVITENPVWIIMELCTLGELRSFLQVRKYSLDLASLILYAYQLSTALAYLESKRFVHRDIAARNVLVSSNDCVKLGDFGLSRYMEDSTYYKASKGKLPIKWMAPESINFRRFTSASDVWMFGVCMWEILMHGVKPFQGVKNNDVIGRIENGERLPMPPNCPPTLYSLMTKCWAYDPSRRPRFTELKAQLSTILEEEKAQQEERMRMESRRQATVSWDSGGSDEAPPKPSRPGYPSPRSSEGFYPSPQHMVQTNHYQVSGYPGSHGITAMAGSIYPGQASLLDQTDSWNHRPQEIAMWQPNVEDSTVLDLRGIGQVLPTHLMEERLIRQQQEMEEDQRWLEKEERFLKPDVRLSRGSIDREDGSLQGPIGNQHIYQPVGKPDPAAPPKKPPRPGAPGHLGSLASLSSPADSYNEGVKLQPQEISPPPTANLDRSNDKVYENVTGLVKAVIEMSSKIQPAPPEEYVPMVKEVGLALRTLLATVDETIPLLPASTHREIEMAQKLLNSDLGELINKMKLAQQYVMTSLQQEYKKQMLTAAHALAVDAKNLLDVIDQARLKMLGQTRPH

[15] = target: Receptor-type tyrosine-protein kinase FLT3 (Homo sapiens) (UniProt P36888); experiment: Inhibition of FLT3 (unknown origin) assessed as remaining activity at 10 uM by high-throughput assay relative to control
[16] = target: Mitogen-activated protein kinase 8 (Homo sapiens) (UniProt P45983); experiment: Inhibition of JNK1 (unknown origin) assessed as remaining activity at 10 uM by high-throughput assay relative to control
[17] = target: Mast/stem cell growth factor receptor Kit (Homo sapiens) (UniProt P10721); experiment: Inhibition of KIT (unknown origin) assessed as remaining activity at 10 uM by high-throughput assay relative to control
Mast/stem cell growth factor receptor Kit (Homo sapiens), sequence (P10721 whole entry): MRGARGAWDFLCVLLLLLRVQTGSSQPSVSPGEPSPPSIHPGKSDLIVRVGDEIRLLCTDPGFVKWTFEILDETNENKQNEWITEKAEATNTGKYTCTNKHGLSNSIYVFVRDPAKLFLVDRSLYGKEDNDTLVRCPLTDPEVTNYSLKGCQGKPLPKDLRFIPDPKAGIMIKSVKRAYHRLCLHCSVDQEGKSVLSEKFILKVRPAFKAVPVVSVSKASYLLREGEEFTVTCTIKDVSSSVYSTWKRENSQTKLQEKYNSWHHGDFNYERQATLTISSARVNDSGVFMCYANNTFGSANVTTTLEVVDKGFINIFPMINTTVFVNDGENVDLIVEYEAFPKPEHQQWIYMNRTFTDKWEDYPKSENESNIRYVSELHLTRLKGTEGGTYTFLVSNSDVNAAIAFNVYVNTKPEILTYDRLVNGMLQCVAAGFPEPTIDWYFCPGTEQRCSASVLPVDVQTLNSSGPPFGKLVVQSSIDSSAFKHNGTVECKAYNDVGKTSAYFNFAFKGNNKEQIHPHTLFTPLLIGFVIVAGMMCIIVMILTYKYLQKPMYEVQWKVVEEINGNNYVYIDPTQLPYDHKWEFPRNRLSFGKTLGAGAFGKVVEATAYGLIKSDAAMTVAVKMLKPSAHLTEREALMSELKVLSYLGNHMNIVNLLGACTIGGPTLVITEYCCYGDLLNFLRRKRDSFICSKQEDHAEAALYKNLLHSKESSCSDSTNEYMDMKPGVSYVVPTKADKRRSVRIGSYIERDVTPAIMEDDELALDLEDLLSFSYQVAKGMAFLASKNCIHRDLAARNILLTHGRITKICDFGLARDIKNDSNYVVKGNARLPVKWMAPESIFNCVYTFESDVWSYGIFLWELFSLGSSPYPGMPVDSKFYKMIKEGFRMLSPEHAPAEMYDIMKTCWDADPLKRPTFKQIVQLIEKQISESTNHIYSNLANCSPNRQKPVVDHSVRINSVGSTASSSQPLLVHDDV

[18] = system: Mast/stem cell growth factor receptor Kit (Homo sapiens), P10721 [V559D,T670I]; experiment: Inhibition of KIT V559D/T670I double mutant (unknown origin) assessed as remaining activity at 10 uM by high-throughput assay relative to control
[19] = target: MAP/microtubule affinity-regulating kinase 3 (Homo sapiens) (UniProt P27448); experiment: Inhibition of MARK3 (unknown origin) assessed as remaining activity at 10 uM by high-throughput assay relative to control
[20] = target: Dual specificity mitogen-activated protein kinase kinase 2 (Homo sapiens) (UniProt P36507); experiment: Inhibition of MEK2 (unknown origin) assessed as remaining activity at 10 uM by high-throughput assay relative to control
[21] = target: Hepatocyte growth factor receptor (Homo sapiens) (UniProt P08581); experiment: Inhibition of MET (unknown origin) assessed as remaining activity at 10 uM by high-throughput assay relative to control
[22] = target: MAP kinase-interacting serine/threonine-protein kinase 2 (Homo sapiens) (UniProt Q9HBH9); experiment: Inhibition of MKNK2 (unknown origin) assessed as remaining activity at 10 uM by high-throughput assay relative to control
[23] = target: Serine/threonine-protein kinase PAK 1 (Homo sapiens) (UniProt Q13153); experiment: Inhibition of PAK1 (unknown origin) assessed as remaining activity at 10 uM by high-throughput assay relative to control
[24] = target: Serine/threonine-protein kinase PAK 2 (Homo sapiens) (UniProt Q13177); experiment: Inhibition of PAK2 (unknown origin) assessed as remaining activity at 10 uM by high-throughput assay relative to control
[25] = target: Cyclin-dependent kinase 16 (Homo sapiens) (UniProt Q00536); experiment: Inhibition of PCTK1 (unknown origin) assessed as remaining activity at 10 uM by high-throughput assay relative to control
Cyclin-dependent kinase 16 (Homo sapiens), sequence (Q00536 whole entry): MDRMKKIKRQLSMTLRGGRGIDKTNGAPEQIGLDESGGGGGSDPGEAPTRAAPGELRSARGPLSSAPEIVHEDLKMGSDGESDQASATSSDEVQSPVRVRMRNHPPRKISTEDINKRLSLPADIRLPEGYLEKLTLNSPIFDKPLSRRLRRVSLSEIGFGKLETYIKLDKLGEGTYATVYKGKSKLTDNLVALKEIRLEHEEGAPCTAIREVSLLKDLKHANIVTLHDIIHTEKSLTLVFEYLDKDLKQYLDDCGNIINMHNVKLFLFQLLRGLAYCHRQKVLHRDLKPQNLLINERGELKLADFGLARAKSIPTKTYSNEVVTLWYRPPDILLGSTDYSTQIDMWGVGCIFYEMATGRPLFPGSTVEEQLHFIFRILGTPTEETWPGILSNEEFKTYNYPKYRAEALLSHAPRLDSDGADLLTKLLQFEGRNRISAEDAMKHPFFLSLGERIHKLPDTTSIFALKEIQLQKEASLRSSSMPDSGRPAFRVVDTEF

[26] = target: Serine/threonine-protein kinase pim-1 (Homo sapiens) (UniProt P11309); experiment: Inhibition of PIM1 (unknown origin) assessed as remaining activity at 10 uM by high-throughput assay relative to control
[27] = target: Serine/threonine-protein kinase PLK1 (Homo sapiens) (UniProt P53350); experiment: Inhibition of PLK1 (unknown origin) assessed as remaining activity at 10 uM by high-throughput assay relative to control
[28] = target: Serine/threonine-protein kinase PLK4 (Homo sapiens) (UniProt O00444); experiment: Inhibition of PLK4 (unknown origin) assessed as remaining activity at 10 uM by high-throughput assay relative to control
[29] = target: Rho-associated protein kinase 2 (Homo sapiens) (UniProt O75116); experiment: Inhibition of ROCK2 (unknown origin) assessed as remaining activity at 10 uM by high-throughput assay relative to control
[30] = target: Ribosomal protein S6 kinase alpha-3 (Homo sapiens) (UniProt P51812); experiment: Inhibition of RSK2 Kin.Dom1.1-N-terminal (unknown origin) assessed as remaining activity at 10 uM by high-throughput assay relative to control
[31] = target: Angiopoietin-1 receptor (Homo sapiens) (UniProt Q02763); experiment: Inhibition of TIE2 (unknown origin) assessed as remaining activity at 10 uM by high-throughput assay relative to control
[32] = target: Testis-specific serine/threonine-protein kinase 1 (Homo sapiens) (UniProt Q9BXA7); experiment: Inhibition of TSSK1B (unknown origin) assessed as remaining activity at 10 uM by high-throughput assay relative to control

Which results are given for `O=C1c2ccccc2-c2c1oc1ccccc1c2=O`?
IC50 [1]: 55.8 µM; Activity [2]: 61%; Activity [3]: 98%; Activity [4]: 73%; Activity [5]: 66%; Activity [6]: 53%; Activity [7]: 66%; Activity [8]: 71%; Activity [9]: 77%; Activity [10]: 30%; Activity [11]: 78%; Activity [12]: 100%; Activity [13]: 87%; Activity [14]: 90%; Activity [15]: 51%; Activity [16]: 34%; Activity [17]: 38%; Activity [18]: 65%; Activity [19]: 90%; Activity [20]: 71%; Activity [21]: 64%; Activity [22]: 59%; Activity [23]: 93%; Activity [24]: 82%; Activity [25]: 92%; Activity [26]: 93%; Activity [27]: 38%; Activity [28]: 80%; Activity [29]: 79%; Activity [30]: 77%; Activity [31]: 74%; Activity [32]: 71%
